US7982043B2, “Protein tyrosine kinase enzyme inhibitors” (Wyeth LLC, priority 2003, dated 2011)
In brackets after ≈: the same amount, converted by molar mass. Read-outs that look alike come from different tables or passages of the source.

Experiments:
Format in all cases: cell-based
A431 cells = assay: Cell proliferation assay (SRB), A431; conditions: for IC50: Homo sapiens, A-431, 48 h, read-out: CELL IC50 A431
MDA-MB-435 cells = assay: Cell proliferation assay (SRB), MDA-MB-435; conditions: for IC50: Homo sapiens, MDA-MB-435, 48 h, read-out: CELL IC50 MDA-MB-435
SW620 cells = assay: Cell proliferation assay (SRB), SW620; conditions: for IC50: Homo sapiens, SW-620, 48 h, read-out: CELL IC50 SW620
SK-Br-3 cells = assay: Cell proliferation assay (SRB), SK-Br-3; conditions: for IC50: Homo sapiens, SK-BR-3, 48 h, read-out: CELL IC50 SKBr3
[1] = biological target: mouse fibroblast cell line transfected with the HER-2 oncogene (3T3/neu) (UniProt P04626, cells depend on it, species not given); assay: Cell proliferation assay (SRB), 3T3/neu; conditions: for GI50: read-out: CELL IC50 3T3/NEU (converted)

Row | IC50 (MDA-MB-435 cells; EGFR −, Her-2 −, 2 days, SRB) [µg/mL] | IC50 (SW620 cells; EGFR −, Her-2 −, 2 days, SRB) [µg/mL] | IC50 (SK-Br-3 cells; EGFR −, Her-2 +++, 2 days, SRB) [µg/mL] | GI50 ([1]; EGFR −, Her-2 +++, 2 days, SRB) [µM] | IC50 (A431 cells; EGFR +++, Her-2 +, 2 days, SRB) [µg/mL] | Molecule | also measured
1 | 0.09 (≈ 0.151 µM) | 0.4 (≈ 0.672 µM) | 0.002 (≈ 0.00336 µM) | 0.00336 | 0.03 (≈ 0.0504 µM) | COCCN(C)C/C=C/C(=O)Nc1cc2c(Nc3ccc(Sc4nccs4)c(Cl)c3)c(C#N)cnc2cc1OC [Example 71, (E)-N-{4-[3-chloro-4-(1,3-thiazol-2-ylsulfanyl)anilino]-3-cyano-7-methoxy-6-quinolinyl}-4-[(2-methoxyethyl)(methyl)amino]-2-butenamide] | 
2 | > 5 | > 5 | 0.75 (≈ 1.79 µM) | > 11.9 | > 5 | CCOc1cc2ncc(C#N)c(Nc3ccc(Cn4ccnc4)c(Cl)c3)c2cc1N [Example 61, 6-amino-4-[3-chloro-4-(1H-imidazol-1-ylmethyl)anilino]-7-ethoxy-3-quinolinecarbonitrile] | 
3 | 1.87 (≈ 4.06 µM) | 3.21 (≈ 6.96 µM) | 0.726 (≈ 1.58 µM) | 8.74 | 1.6 (≈ 3.47 µM) | COc1cc2ncc(C#N)c(Nc3ccc(NCc4cccnc4)c(Cl)c3)c2cc1[N+](=O)[O-] [Example 57, 4-{3-chloro-4-[(3-pyridinylmethyl)amino]anilino}-7-methoxy-6-nitro-3-quinolinecarbonitrile] | 
4 | 1.8 (≈ 3.89 µM) | 2 (≈ 4.32 µM) | > 5 | 6.54 | 1.53 (≈ 3.3 µM) | CCOc1cc2ncc(C#N)c(Nc3ccc(Sc4nccc(C)n4)c(Cl)c3)c2cc1N [Example 64, 6-amino-4-{3-chloro-4-[(4-methyl-2-pyrimidinyl)sulfanyl]anilino}-7-ethoxy-3-quinolinecarbonitrile] | 

More lines, now with the values behind:

Row | Molecule | IC50 (MDA-MB-435 cells; EGFR −, Her-2 −, 2 days, SRB) [µg/mL] | IC50 (SW620 cells; EGFR −, Her-2 −, 2 days, SRB) [µg/mL] | IC50 (SK-Br-3 cells; EGFR −, Her-2 +++, 2 days, SRB) [µg/mL] | GI50 ([1]; EGFR −, Her-2 +++, 2 days, SRB) [µM] | IC50 (A431 cells; EGFR +++, Her-2 +, 2 days, SRB) [µg/mL] | also measured
5 | CCOc1cc2ncc(C#N)c(Nc3ccc(Cn4ccnc4)c(Cl)c3)c2cc1NC(=O)/C=C/CN(C)C [Example 62, (E)-N-{4-[3-chloro-4-(1H-imidazol-1-ylmethyl)anilino]-3-cyano-7-ethoxy-6-quinolinyl}-4-(dimethylamino)-2-butenamide] | 2.1 (≈ 3.96 µM) | 3.8 (≈ 7.17 µM) | 0.045 (≈ 0.0849 µM) | 1.87 |  | IC50 (A431 cells): 0.95 µg/mL (≈ 1.79 µM)
6 | COc1cc2ncc(C#N)c(Nc3ccc(-n4ccnc4)c(Cl)c3)c2cc1[N+](=O)[O-] [Example 41] |  |  |  |  |  | CELL IC50 A431 (A431 cells; EGFR +++, Her-2 +, 2 days, SRB): 1.79 µg/mL; CELL IC50 MDA-MB-435 (MDA-MB-435 cells; EGFR −, Her-2 −, 2 days, SRB): 0.95 µg/mL; CELL IC50 SW620 (SW620 cells; EGFR −, Her-2 −, 2 days, SRB): 1.66 µg/mL; CELL IC50 SKBr3 (SK-Br-3 cells; EGFR −, Her-2 +++, 2 days, SRB): 1.48 µg/mL; CELL IC50 3T3/NEU ([1]; EGFR −, Her-2 +++, 2 days, SRB): 1.09 µg/mL
7 | COc1cc2ncc(C#N)c(Nc3ccc(Sc4nccn4C)c(Cl)c3)c2cc1N [Example 36, 6-amino-4-({3-chloro-4-[(1-methyl-1H-imidazol-2-yl)sulfanyl]phenyl}amino)-7-methoxy-3-quinolinecarbonitrile] | 0.39 (≈ 0.893 µM) | 3.16 (≈ 7.23 µM) | 0.011 (≈ 0.0252 µM) | 2.43 | 3.04 (≈ 6.96 µM) | 
8 | COc1cc2ncc(C#N)c(Nc3ccc(N(Cc4cccnc4)C(C)=O)c(Cl)c3)c2cc1[N+](=O)[O-] [Example 48] |  |  |  |  |  | CELL IC50 A431 (A431 cells; EGFR +++, Her-2 +, 2 days, SRB): 1.6 µg/mL; CELL IC50 MDA-MB-435 (MDA-MB-435 cells; EGFR −, Her-2 −, 2 days, SRB): 2.61 µg/mL; CELL IC50 SW620 (SW620 cells; EGFR −, Her-2 −, 2 days, SRB): 2.57 µg/mL; CELL IC50 SKBr3 (SK-Br-3 cells; EGFR −, Her-2 +++, 2 days, SRB): 0.68 µg/mL; CELL IC50 3T3/NEU ([1]; EGFR −, Her-2 +++, 2 days, SRB): 1.79 µg/mL
9 | COc1cc2ncc(C#N)c(Nc3ccc(N(Cc4cccnc4)C(C)=O)c(Cl)c3)c2cc1N [Example 49] |  |  |  |  |  | CELL IC50 A431 (A431 cells; EGFR +++, Her-2 +, 2 days, SRB): >5 µg/mL; CELL IC50 MDA-MB-435 (MDA-MB-435 cells; EGFR −, Her-2 −, 2 days, SRB): 3.76 µg/mL; CELL IC50 SW620 (SW620 cells; EGFR −, Her-2 −, 2 days, SRB): >5 µg/mL; CELL IC50 SKBr3 (SK-Br-3 cells; EGFR −, Her-2 +++, 2 days, SRB): 3.41 µg/mL; CELL IC50 3T3/NEU ([1]; EGFR −, Her-2 +++, 2 days, SRB): 2.4 µg/mL
10 | CCOc1cc2ncc(C#N)c(Nc3ccc4cc[nH]c4c3)c2cc1OCC [Example 22, 6,7-Diethoxy-4-(1H-indol-6-ylamino)-quinoline-3-carbonitrile] | 0.365 (≈ 0.98 µM) | 0.286 (≈ 0.768 µM) | 0.0374 (≈ 0.1 µM) | 2.51 | 0.123 (≈ 0.33 µM) | 
11 | 4-{3-chloro-4-[(4-oxo-3,4-dihydro-2-quinazolinyl)sulfanyl]anilino}-7-methoxy-6-hydro-2-quinazolinyl)sulfanyl]anilino}-7-methoxy-6-nitro-3-quinolinecarbonitrile [Example 44] |  |  |  |  |  | CELL IC50 A431 (A431 cells): 2.28 µg/mL; CELL IC50 MDA-MB-435 (MDA-MB-435 cells): >5 µg/mL; CELL IC50 SW620 (SW620 cells): 1.96 µg/mL; CELL IC50 SKBr3 (SK-Br-3 cells): 4.54 µg/mL; CELL IC50 3T3/NEU ([1]; mouse fibroblast cell line transfected with the her-2 oncogene (3t3/neu)): 4.54 µg/mL
12 | COc1cc2c(Nc3ccc4cn[nH]c4c3)c(C#N)cnc2cc1OCCCN1CCOCC1 [Example 34, 4-(1H-Indazol-6-ylamino)-6-methoxy-7-(3-morpholin-4-yl-propoxy)-quinoline-3-carbonitrile] | > 5 | > 5 | > 5 | > 10.9 | > 5 | 
